Activity calls are given as the source filed them. No cut-off for these calls is given here.
Assays:
[1] = test system: Botrytis cinerea; experiment: Antifungal activity against Botryotinia fuckeliana Bc-44 in kidney bean leaves assessed as reduction of disease diameter lesions at 200 ppm after 4 days; assay type: functional; set-up: scale not given: the % may be the effect or the level left
[2] = test system: Botrytis cinerea; experiment: Antifungal activity against Botryotinia fuckeliana Bc-44 in kidney bean leaves assessed as reduction of disease diameter lesions at 50 ppm after 4 days; assay type: functional; set-up: scale not given: the % may be the effect or the level left
[3] = test system: Botrytis cinerea; experiment: Antifungal activity against benzimidazole-resistant Botryotinia fuckeliana Bc-44 assessed as inhibition of radial mycelial growth after 48 hr; assay type: functional, organism-based
[4] = test system: Botrytis cinerea; experiment: Antifungal activity against benzimidazole-sensitive Botryotinia fuckeliana Bc-9 assessed as inhibition of radial mycelial growth after 48 hr; assay type: functional, organism-based
[5] = test system: Botrytis cinerea; experiment: Antifungal activity against benzimidazole-sensitive Botryotinia fuckeliana Bc-9 assessed as distorted and swollen germ tube at 1 ug/ml after 48 hr; assay type: functional, organism-based
[6] = test system: Botrytis cinerea; experiment: Antifungal activity against benzimidazole-sensitive Botryotinia fuckeliana Bc-9 assessed as inhibition of hyphae extension at 1 ug/ml after 48 hr; assay type: functional, organism-based
[7] = test system: Botrytis cinerea; experiment: Resistant ratio of EC50 for benzimidazole-sensitive Botryotinia fuckeliana Bc-9 to EC50 for benzimidazole-resistant Botryotinia fuckeliana Bc-44; assay type: functional
[8] = test system: Botrytis cinerea; experiment: Antifungal activity against benzimidazole-sensitive Botryotinia fuckeliana Bc-9 assessed as inhibition of hyphae extension at 15 ug/ml after 48 hr; assay type: functional, organism-based
[9] = test system: Botrytis cinerea; experiment: Antifungal activity against benzimidazole-sensitive Botryotinia fuckeliana Bc-9 assessed as distorted and swollen germ tube at 15 ug/ml after 48 hr; assay type: functional, organism-based
[10] = test system: Botrytis cinerea; experiment: Antifungal activity against benzimidazole-resistant Botryotinia fuckeliana Bc-44 assessed as inhibition of hyphae extension at 15 ug/ml after 48 hr; assay type: functional, organism-based
[11] = test system: Botrytis cinerea; experiment: Antifungal activity against benzimidazole-resistant Botryotinia fuckeliana Bc-44 assessed as distorted and swollen germ tube at 15 ug/ml after 48 hr; assay type: functional, organism-based
[12] = test system: Botrytis cinerea; experiment: Antifungal activity against benzimidazole-resistant Botryotinia fuckeliana Bc-44 assessed as inhibition of conidia germination at 15 ug/ml after 48 hr; assay type: functional, organism-based

CCONC(=O)Nc1cc(Cl)cc(Cl)c1
Activity [1]: <25% | Activity [2]: <25%

CCO/N=C(\C)Nc1cc(Cl)cc(Cl)c1
Activity [1]: 100% | Activity [2]: 50%

COC(=O)Nc1cc(Cl)cc(Cl)c1
EC50 [3]: 0.2 ppm | Activity [1]: 100% | Activity [2]: 90% | EC50 [4]: 5 ppm | inhibition [5]: inactive | inhibition [6]: inactive | Ratio EC50 [7]: 25

CNC(=O)Oc1nc2ccccc2[nH]1
EC50 [3]: > 100 ppm | EC50 [4]: 0.05 ppm | Ratio EC50 [7]: 0.0005

CCO/N=C(/Nc1cc(Cl)cc(Cl)c1)SC
Activity [1]: 26% | Activity [2]: <25%

N#CNc1cc(Cl)cc(Cl)c1
Activity [1]: <25% | Activity [2]: <25%

CCONC(=S)Nc1cc(Cl)cc(Cl)c1
Activity [1]: <25% | Activity [2]: <25%

CN(C#N)c1cc(Cl)cc(Cl)c1
Activity [1]: 90% | Activity [2]: 26%

CO/N=C/Nc1cc(Cl)cc(Cl)c1
EC50 [3]: 3 ppm | Activity [1]: 100% | inhibition [8]: inactive | inhibition [9]: inactive | Activity [2]: 90% | EC50 [4]: 30 ppm | inhibition [10]: Active | inhibition [11]: Active | Activity [12]: inactive | Ratio EC50 [7]: 10

Clc1cc(Cl)cc(Nc2nccs2)c1
Activity [1]: 26% | Activity [2]: <25%

CCO/N=C/Nc1cc(Cl)cc(Cl)c1
Activity [1]: 100% | Activity [2]: 90%
